In PubChem BioAssay (NCI):
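Test compounds were applied to cells in 96-well plates for 48 hours at 5 doses. TGI denotes the concentration required for complete inhibition of growth.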

Assays:
Test in all cases: DTP human tumour cell line panel, 48 h
786-0 renal = test system: 786-0 renal
A498 renal = test system: A498 renal
A549 NSCLC = test system: A549 NSCLC
ACHN renal = test system: ACHN renal
BT-549 breast = test system: BT-549 breast
CAKI-1 renal = test system: CAKI-1 renal
CCRF-CEM leukemia = test system: CCRF-CEM leukemia
COLO 205 colon = test system: COLO 205 colon
DU-145 prostate = test system: DU-145 prostate
EKVX NSCLC = test system: EKVX NSCLC
HCC-2998 colon = test system: HCC-2998 colon
HCT-116 colon = test system: HCT-116 colon
HCT-15 colon = test system: HCT-15 colon
HL-60(TB) leukemia = test system: HL-60(TB) leukemia
HOP-62 NSCLC = test system: HOP-62 NSCLC
HOP-92 NSCLC = test system: HOP-92 NSCLC
HS 578T breast = test system: HS 578T breast
HT29 colon = test system: HT29 colon
IGROV1 ovarian = test system: IGROV1 ovarian
K-562 leukemia = test system: K-562 leukemia
KM12 colon = test system: KM12 colon
LOX IMVI melanoma = test system: LOX IMVI melanoma
M14 melanoma = test system: M14 melanoma
MCF7 breast = test system: MCF7 breast
MDA-MB-231 breast = test system: MDA-MB-231 breast
MDA-MB-435 = test system: MDA-MB-435
MDA-N = test system: MDA-N
MOLT-4 leukemia = test system: MOLT-4 leukemia
NCI-H226 lung = test system: NCI-H226 lung
NCI-H23 lung = test system: NCI-H23 lung
NCI-H460 lung = test system: NCI-H460 lung
NCI-H522 lung = test system: NCI-H522 lung
NCI/ADR-RES ovarian = test system: NCI/ADR-RES ovarian
OVCAR-3 ovarian = test system: OVCAR-3 ovarian
OVCAR-4 ovarian = test system: OVCAR-4 ovarian
OVCAR-5 ovarian = test system: OVCAR-5 ovarian
OVCAR-8 ovarian = test system: OVCAR-8 ovarian
PC-3 prostate = test system: PC-3 prostate
RPMI-8226 leukemia = test system: RPMI-8226 leukemia
RXF 393 renal = test system: RXF 393 renal
SF-268 CNS = test system: SF-268 CNS
SF-295 CNS = test system: SF-295 CNS
SF-539 CNS = test system: SF-539 CNS
SK-MEL-2 melanoma = test system: SK-MEL-2 melanoma
SK-MEL-28 melanoma = test system: SK-MEL-28 melanoma
SK-MEL-5 melanoma = test system: SK-MEL-5 melanoma
SN12C renal = test system: SN12C renal
SNB-19 CNS = test system: SNB-19 CNS
SR leukemia = test system: SR leukemia
SW-620 colon = test system: SW-620 colon
T-47D breast = test system: T-47D breast
TK-10 renal = test system: TK-10 renal
U251 CNS = test system: U251 CNS
UACC-257 melanoma = test system: UACC-257 melanoma
UACC-62 melanoma = test system: UACC-62 melanoma
UO-31 renal = test system: UO-31 renal
MALME-3M melanoma = test system: MALME-3M melanoma
SK-OV-3 ovarian = test system: SK-OV-3 ovarian
SNB-75 CNS = test system: SNB-75 CNS

Measured: TGI

CN(C)c1ccc2c3c(c(=O)oc2c1)CCC3
not listed: MALME-3M melanoma | SK-OV-3 ovarian | SNB-75 CNS
> 100 µM: all other assays above

CC1(C)C(=O)N=C(N)N1C(=O)OCc1ccccc1
not listed: RXF 393 renal
> 100 µM: all other assays above

O=C1C(=O)c2ccccc2C(O)=C1C(CCc1ccccc1)C1=C(O)c2ccccc2C(=O)C1=O
29.1 µM: DU-145 prostate
29.7 µM: MALME-3M melanoma
34.5 µM: UACC-62 melanoma
30.9 µM: SK-MEL-5 melanoma
34.3 µM: MDA-N
66.7 µM: UACC-257 melanoma
15.4 µM: HL-60(TB) leukemia
28.4 µM: MDA-MB-435
not listed: HCC-2998 colon | K-562 leukemia | MOLT-4 leukemia
> 100 µM: all other assays above

C/C=C(/C)C(=O)O[C@H]1C(C)=C[C@]23C(=O)[C@@H](C=C(COC(C)=O)[C@@H](O)[C@]12O)[C@H]1[C@@H](C[C@H]3C)[C@@]1(C)OC(=O)/C(C)=C\C
4.53 µM: SNB-75 CNS
3.29 µM: T-47D breast
5.99 µM: OVCAR-3 ovarian
5.69 µM: UACC-62 melanoma
5.01 µM: SF-295 CNS
10.2 µM: IGROV1 ovarian
7.17 µM: HCT-15 colon
11.3 µM: OVCAR-8 ovarian
5.59 µM: HCC-2998 colon
3.84 µM: SK-MEL-5 melanoma
6.6 µM: MDA-MB-435
6.48 µM: OVCAR-5 ovarian
6.81 µM: K-562 leukemia
2.16 µM: UO-31 renal
9.77 µM: HCT-116 colon
1.49 µM: HT29 colon
7.52 µM: NCI-H226 lung
10.9 µM: SR leukemia
5.73 µM: BT-549 breast
9.65 µM: LOX IMVI melanoma
3.8 µM: COLO 205 colon
8.93 µM: 786-0 renal
3.56 µM: MOLT-4 leukemia
6.14 µM: CAKI-1 renal
11.8 µM: SK-MEL-28 melanoma
6.21 µM: DU-145 prostate
6.34 µM: HOP-92 NSCLC
5.47 µM: M14 melanoma
5.19 µM: NCI-H23 lung
5.28 µM: HS 578T breast
4.39 µM: ACHN renal
5.25 µM: HOP-62 NSCLC | RXF 393 renal
4.73 µM: SF-268 CNS
6.01 µM: SK-MEL-2 melanoma
4.06 µM: KM12 colon
5.67 µM: HL-60(TB) leukemia
7.69 µM: TK-10 renal
6.11 µM: MCF7 breast
6.07 µM: A498 renal | NCI-H522 lung
9.76 µM: SW-620 colon
6.38 µM: EKVX NSCLC
8.2 µM: SK-OV-3 ovarian
6.82 µM: NCI/ADR-RES ovarian
8.18 µM: MDA-MB-231 breast
5.88 µM: SF-539 CNS
9.34 µM: A549 NSCLC
6.35 µM: MDA-N
5.34 µM: SN12C renal
5.92 µM: SNB-19 CNS
10.4 µM: UACC-257 melanoma
5.21 µM: CCRF-CEM leukemia
4.09 µM: NCI-H460 lung
7.55 µM: U251 CNS
3.89 µM: MALME-3M melanoma
4.75 µM: PC-3 prostate
6.33 µM: OVCAR-4 ovarian
